According to patent publication US12383629B2, “DNA-affibody-drug nanoparticles for inhibiting the metastasis of cancer cells overexpressing HER2” (Arizona Board of Regents on behalf of Arizona State …, priority 2019, dated 2025):

Test system: HER2 receptor
Assay: Western blot assay for HER2 targeting
Type: cell-based
Conditions: BT474, 1 h; 1 μM DOX, 0.02 μM III, 1 μM Herceptin
Protocol: Western Blot Analysis—BT474 cells (50,000 cells/mL) were seeded in a 6-well cell culture plate and incubated in 1 mL of Gibco® RPMI 1640 medium supplemented with 10% fetal bovine serum (FBS) and 1% antibiotic-antimycotic mix antibiotic supplement at 37° C. for 24 h in a 5% CO2 atmosphere. […] The cells were washed with 1 mL 1×PBS buffer, and treated with 150 μL Cellstripper® non-enzymatic cell dissociation solution. After centrifugation at 500×g for 3 min, the cell pellets were washed with 150 μL 1×PBS buffer and treated with 60 μL, of 1×RIPA lysis buffer containing protease and phosphatase inhibitor cocktail (Sigma-Aldrich). After three cycle of freeze, thaw and sonication following by centrifugation at 15,000×g for 2 min at 4° C., the clear supernatant was collected.
Total protein concentration was measured using a BCA kit (Thermo Fisher Scientific). NuPAGE LDS Sample Buffer (4×) and NuPAGE Reducing Agent (10×) was added to the lysate which was denatured at 70° C. for 5 min. Equal amounts of lysates (25 μg) were loaded on a 4%-12% SDS-polyacrylamide Bis-Tris gels (Invitrogen) according to the manufacturer's recommendations and then proteins were transferred to nitrocellulose membranes. […]

COc1cccc2c1C(=O)c1c(O)c3c(c(O)c1C2=O)C[C@@](O)(C(=O)CO)C[C@@H]3O[C@H]1C[C@H](N)[C@H](O)[C@H](C)O1 [DOX, doxorubicin]
level of phosphorylated HER2 (Y1221/1222): did not change
